# Test results taken from PMC12373846, “Hemoglobin as a pseudoperoxidase and drug target for oxidative stress-related diseases” (Signal Transduction and Targeted Therapy, 2025).
# What was measured:
# fGiD mice = experiment: Immunohistochemistry of hippocampal CA1, fGiD mice; assay type: in vivo, mouse; settings: fGiD+KDS, 3 mg/kg/day i.p. 16 days, Fig. 4e
# SOD1^G93A mice = experiment: Survival and rotarod, SOD1^G93A ALS mice; assay type: in vivo, mouse; settings: 1 and 10 mg/kg/day ad libitum
# Method: SOD1^G93A mice (B6SJL-Tg(SOD1*G93A)1Gur/J) were purchased from Jackson Laboratory (strain number 002726) and used in the ALS mouse model. The mice were divided into four groups: Control, SOD1, and KDS12025 (1 and 10 mg/kg/day). Starting at 10 weeks of age, KDS12025 was administered via ad libitum drinking water at doses of 1 mg/kg/day and 10 mg/kg/day. The control and SOD1 groups received standard drinking water. Motor function was evaluated weekly via the rotarod performance test, and the ratio of running time was normalized to that of littermate controls to assess motor coordination and endurance over time. Survival of the mice was monitored for up to 24 weeks, and median survival times were calculated for each group.
# CIA DBA1 mice = experiment: CIA mouse model of rheumatoid arthritis; assay type: in vivo; parameters: matrix, toluidine blue (Fig. S20m) / surface regularity, toluidine blue (Fig. S20n) / CIA score at day 42 (Fig. S20c) / area under the curve (AUC) of symptom severity (Fig. S20e): scale not given here; cartilage thickness, toluidine blue (Fig. S20o): unit not given here
# Method: CIA was induced in DBA1 mice by intradermal injection of type II collagen emulsified in Complete Freund's Adjuvant (CFA) on day 0, followed by a booster injection of type II collagen in Incomplete Freund's Adjuvant (IFA) on day 21. Starting from day 23, mice were administered KDS12025 in drinking ad libitum at doses of 0, 0.1, or 1 mg/kg/day until day 42. To assess joint inflammation and cartilage thickness in CIA mice, joint samples were collected and fixed in 10% formalin. The samples were then decalcified, embedded in paraffin, and sectioned. For histological evaluation, sections were stained with H&E to assess inflammation and with Toluidine Blue to evaluate cartilage thickness. The stained sections were examined under a light microscope, and images were captured for quantitative analysis of inflammatory cell infiltration and cartilage integrity.
# C57BL/6 mice = experiment: Blood H2O2 measurement after LPS; assay type: in vivo, mouse; settings: LPS 6 h + KDS12025 3 mg/kg i.p.
# Method: C57BL/6 mice were intraperitoneally (i.p.) injected with lipopolysaccharide (LPS) and sacrificed at 2, 6, and 24 h post-injection. Blood was collected from the heart using a syringe pre-treated with 0.5 M EGTA to prevent coagulation. Plasma was separated by centrifuging the collected blood at 1,500 × g for 10 min at 4 °C. H2O2 levels in the plasma were quantified using the Amplex Red assay according to the manufacturer’s instructions. The H2O2 levels peaked at 6 h post-LPS injection. Subsequently, KDS12025 (3 mg/kg/day) was intraperitoneally administered concurrently with LPS at the 6 h time point, and plasma H2O2 levels were measured to assess the effect of the compound.
# GiD mice = experiment: Novel place recognition test, GiD mice; assay type: in vivo, mouse; settings: GiD+KDS12025 0.1mpk ad libitum, Fig. S11e
# HRP = molecular target: T1, HRP (Armoracia rusticana, UniProt P00433); experiment: Amplex Red H2O2 assay (HRP-dependent); assay type: biochemical, horseradish; settings: Fig. 1b; read-out: EC50, dose-response in Amplex Red assay
# T1 sequence (P00433 31-353): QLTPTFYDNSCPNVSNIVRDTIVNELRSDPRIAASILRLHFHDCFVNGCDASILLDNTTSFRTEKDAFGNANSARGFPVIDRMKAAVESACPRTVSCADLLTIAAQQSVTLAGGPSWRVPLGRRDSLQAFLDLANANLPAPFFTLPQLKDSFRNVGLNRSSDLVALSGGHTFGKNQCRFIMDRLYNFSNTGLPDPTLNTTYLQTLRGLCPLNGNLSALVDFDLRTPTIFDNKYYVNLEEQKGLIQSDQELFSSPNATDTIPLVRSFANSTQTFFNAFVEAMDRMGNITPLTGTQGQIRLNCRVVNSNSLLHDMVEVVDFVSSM
# Method: Hb (Sigma‒Aldrich, H7379), H2O2 (Sigma‒Aldrich, H1009), and Amplex Red reagents (Invitrogen, A12222) were obtained for the study. A 4 μM H2O2 solution was prepared in 50 mM sodium phosphate buffer (pH 7.2). Then, 49 μl of this mixture was mixed with 1 μl of the test compound in DMSO or distilled water. The mixture was combined with an assay mixture of Amplex Red reagent (20 mM stock to 0.1 mM) and HRP (200 U/ml stock to 0.2 U/ml) and added to the wells at 50 μl/well. After a 60-min incubation at 37 °C, resorufin production was quantified via a microplate fluorescence reader (SpectraMax iD5, Molecular Devices) at ex/em = 535/580 nm. The H2O2-decomposing activity was estimated via the following equation: (sample fluorescence-blank fluorescence)/(control […]-blank fluorescence) × 100. For the ROS-Glo assay, the H2O2 substrate solution and ROS-Glo detection solution were prepared according to the manufacturer’s instructions. 10 μM H2O2 and drugs were prepared as in the Amplex Red assay, with HRP, Hb, CAT, or GPx added as needed. […] Luminescence was measured via iD5 microplate readers. The H2O2-decomposing activity was estimated via the following equation: (sample luminescence-blank luminescence)/(control luminescence-blank luminescence) × 100. The U/ml was calculated on the basis of the amount of H2O2 reduced by Hb during the reaction, using μg/ml and U/mg.
smiles,measurement,setting,value
"CNc1ccc(NCCc2ccccc2OC)cc1.Cl [KDS12025, N^1-(2-methoxyphenethyl)-N^4-methylbenzene-1,4-diamine hydrochloride salt]",mean GFAP intensity in the GFAP-positive area,fGiD mice,"fGcon (49.2±2.7, n=9), fGiD (82.5±3.6, n=9), fGiD+KDS (59.0±2.5, n=9) One-way ANOVA with Tukey's multiple comparisons test, F(2,24) = 33.23, p < 0.001 fGcon vs. fGiD, p < 0.01; fGcon vs. fGiD+KDS, p = 0.07; fGiD vs. fGiD+KDS12025 (0.1mpk), p = 0.01"
same,delay of motor impairment onset,SOD1^G93A mice; rotarod,more than 7 weeks
same,median survival,SOD1^G93A mice; untreated 140,168 days
same,CIA score at day 42 (Fig. S20c),CIA DBA1 mice; 0.1 MPK,9.5±1.133
same,area under the curve (AUC) of symptom severity (Fig. S20e),CIA DBA1 mice; 0.1 MPK,54.17±15.02
same,body weight difference (Fig. S20p),CIA DBA1 mice; 0.1 MPK,93±0.5%
same,"bone erosion, H&E (Fig. S20k)",CIA DBA1 mice; 0.1 MPK,0.852±0.3905
same,"cartilage destruction, H&E (Fig. S20i)",CIA DBA1 mice; 0.1 MPK,1.5±0.2949
same,"cartilage thickness, toluidine blue (Fig. S20o)",CIA DBA1 mice; 0.1 MPK,0.85±0.2018
same,"matrix, toluidine blue (Fig. S20m)",CIA DBA1 mice; 0.1 MPK,1.504±0.3303
same,"pannus formation, H&E (Fig. S20j)",CIA DBA1 mice; 0.1 MPK,0.9±0.3929
same,paw volume (Fig. S20f),CIA DBA1 mice; 0.1 MPK,0.1383 ± 0.0074 mL
same,"surface regularity, toluidine blue (Fig. S20n)",CIA DBA1 mice; 0.1 MPK,1.352±0.3083
same,"synovial hyperplasia, H&E (Fig. S20h)",CIA DBA1 mice; 0.1 MPK,1.338±0.2985
same,CIA score at day 42 (Fig. S20c),CIA DBA1 mice; 1 MPK,6.583±0.7002
same,area under the curve (AUC) of symptom severity (Fig. S20e),CIA DBA1 mice; 1 MPK,25.0±9.129
same,body weight difference (Fig. S20p),CIA DBA1 mice; 1 MPK,100.7±0.4%
same,"bone erosion, H&E (Fig. S20k)",CIA DBA1 mice; 1 MPK,0.338±0.2928
same,"cartilage destruction, H&E (Fig. S20i)",CIA DBA1 mice; 1 MPK,0.966±0.2183
same,"cartilage thickness, toluidine blue (Fig. S20o)",CIA DBA1 mice; 1 MPK,0.652±0.1825
same,"matrix, toluidine blue (Fig. S20m)",CIA DBA1 mice; 1 MPK,0.988±0.2547
same,"pannus formation, H&E (Fig. S20j)",CIA DBA1 mice; 1 MPK,0.338±0.2928
same,paw volume (Fig. S20f),CIA DBA1 mice; 1 MPK,0.1183 ± 0.0047 mL
same,"surface regularity, toluidine blue (Fig. S20n)",CIA DBA1 mice; 1 MPK,0.95±0.2009
same,"synovial hyperplasia, H&E (Fig. S20h)",CIA DBA1 mice; 1 MPK,0.7620±0.3263
same,plasma H2O2 level (Fig. S20r),C57BL/6 mice,"Control (0.3325±0.02161, n=6), LPS-6hrs (1.295±0.05323, n=6), LPS-6hrs+KDS (0.7847±0.08078, n=6) One-way ANOVA with Tukey's multiple comparisons test, F(2,15) = 70.74, p < 0.001 Control vs. LPS-6hrs, p < 0.001; Control vs. LPS-6hrs+KDS, p < 0.001; LPS-6hrs vs. LPS-6hrs+KDS, p < 0.001"
same,NPR discrimination index,GiD mice,"WT (0.2256±0.0275, n=3), GiD (-0.02438±0.07989, n=3), GiD+KDS12025 (0.1mpk) (0.2255±0.02347, n=4) One-way ANOVA with Tukey's multiple comparisons test, F(2,7) = 9.285, p = 0.01 WT vs. GiD, p = 0.02; WT vs. GiD+KDS12025 (0.1mpk), p > 0.99; GiD vs. GiD+KDS12025 (0.1mpk), p = 0.01"
"O=C(O)c1cc(NCCc2ccc(C(F)(F)F)cc2)ccc1O [HTPEB, 2-hydroxy-5-[2-(4-trifluoromethyl-phenyl)-ethylamino]-benzoic acid, reference compound]",EC50,HRP,1.8 µM
